Source: PubChem BioAssay (NCI)
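GI50 is the concentration that inhibits growth by half. TGI: concentration producing complete growth inhibition.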

Key:
Assay in all cases: inhibition of tumour cell growth, NCI panel, 384-well format
[1] = test system: 786-0 renal
[2] = test system: A498 renal
[3] = test system: A549 NSCLC
[4] = test system: ACHN renal
[5] = test system: BT-549 breast
[6] = test system: CAKI-1 renal
[7] = test system: CCRF-CEM leukemia
[8] = test system: COLO 205 colon
[9] = test system: DU-145 prostate
[10] = test system: EKVX NSCLC
[11] = test system: HCC-2998 colon
[12] = test system: HCT-116 colon
[13] = test system: HCT-15 colon
[14] = test system: HL-60(TB) leukemia
[15] = test system: HOP-62 NSCLC
[16] = test system: HOP-92 NSCLC
[17] = test system: HS 578T breast
[18] = test system: HT29 colon
[19] = test system: IGROV1 ovarian
[20] = test system: K-562 leukemia
[21] = test system: KM12 colon
[22] = test system: LOX IMVI melanoma
[23] = test system: M14 melanoma
[24] = test system: MALME-3M melanoma
[25] = test system: MCF7 breast
[26] = test system: MDA-MB-231 breast
[27] = test system: MDA-MB-435 melanoma
[28] = test system: MDA-MB-468 breast
[29] = test system: MOLT-4 leukemia
[30] = test system: NCI-H226 lung
[31] = test system: NCI-H23 lung
[32] = test system: NCI-H322M lung
[33] = test system: NCI-H460 NSCLC
[34] = test system: NCI-H522 lung
[35] = test system: NCI/ADR-RES ovarian
[36] = test system: OVCAR-3 ovarian
[37] = test system: OVCAR-4 ovarian
[38] = test system: OVCAR-8 ovarian
[39] = test system: PC-3 prostate
[40] = test system: RPMI-8226 leukemia
[41] = test system: RXF 393 renal
[42] = test system: SF-268 CNS
[43] = test system: SF-295 CNS
[44] = test system: SF-539 CNS
[45] = test system: SK-MEL-28 melanoma
[46] = test system: SK-MEL-5 melanoma
[47] = test system: SK-OV-3 ovarian
[48] = test system: SN12C renal
[49] = test system: SNB-19 CNS
[50] = test system: SNB-75 CNS
[51] = test system: SR leukemia
[52] = test system: SW-620 colon
[53] = test system: T-47D breast
[54] = test system: TK-10 renal
[55] = test system: U251 glioblastoma
[56] = test system: UACC-257 melanoma
[57] = test system: UACC-62 melanoma
[58] = test system: UO-31 renal

## COc1cc2ncnc(Nc3cccc(Cl)c3F)c2cc1OC(=O)N1CCN(C)C[C@H]1C
[1]
  GI50: 14.4 µM
  TGI: 29 µM
[2]
  GI50: 17 µM
  TGI: 42.5 µM
[3]
  GI50: 12.3 µM
  TGI: 43.1 µM
[4]
  GI50: 0.427 µM
  TGI: 20.7 µM
[5]
  GI50: 20.3 µM
  TGI: 46.5 µM
[6]
  GI50: 2.3 µM
  TGI: 20.4 µM
[7]
  GI50: 20.1 µM
  TGI: 49.2 µM
[8]
  GI50: 22.4 µM
  TGI: 54 µM
[9]
  GI50: 13.5 µM
  TGI: 58.2 µM
[10]
  GI50: 0.304 µM
  TGI: 16.7 µM
[11]
  GI50: 17.3 µM
  TGI: 32.4 µM
[12]
  GI50: 16.9 µM
  TGI: 32.8 µM
[13]
  GI50: 13.9 µM
  TGI: 29.2 µM
[14]
  GI50: 16.5 µM
  TGI: 30.2 µM
[15]
  GI50: 17.6 µM
  TGI: 42 µM
[16]
  GI50: 13.4 µM
  TGI: 28.5 µM
[17]
  GI50: 15.2 µM
  TGI: 29.6 µM
[18]
  GI50: 14.4 µM
  TGI: 31.2 µM
[19]
  GI50: 0.241 µM
  TGI: 11.9 µM
[20]
  GI50: 5.49 µM
  TGI: 17.8 µM
[21]
  GI50: 20.1 µM
  TGI: 41.4 µM
[22]
  GI50: 16.3 µM
  TGI: 30.5 µM
[23]
  GI50: 16.4 µM
  TGI: 30.7 µM
[24]
  GI50: 15.1 µM
  TGI: 28.8 µM
[25]
  GI50: 19.8 µM
  TGI: 87.4 µM
[26]
  GI50: 14.7 µM
  TGI: 38.4 µM
[27]
  GI50: 22.6 µM
  TGI: 55.8 µM
[28]
  GI50: 0.128 µM
  TGI: 0.446 µM
[29]
  GI50: 14.2 µM
  TGI: 28.1 µM
[30]
  GI50: 11.7 µM
  TGI: 33.8 µM
[31]
  GI50: 16.4 µM
  TGI: 41.7 µM
[32]
  GI50: 0.144 µM
  TGI: 10.8 µM
[33]
  GI50: 19.9 µM
  TGI: 44.2 µM
[34]
  GI50: 0.851 µM
  TGI: 17.5 µM
[35]
  GI50: 18 µM
  TGI: 64.2 µM
[36]
  GI50: 4.35 µM
  TGI: 24.3 µM
[37]
  GI50: 18.5 µM
  TGI: 51.5 µM
[38]
  GI50: 15.3 µM
  TGI: 49.2 µM
[39]
  GI50: 15.6 µM
  TGI: 49.8 µM
[40]
  GI50: 14.6 µM
  TGI: 30.9 µM
[41]
  GI50: 14.1 µM
  TGI: 29.2 µM
[42]
  GI50: 18.8 µM
  TGI: 54 µM
[43]
  GI50: 16.3 µM
  TGI: 31.4 µM
[44]
  GI50: 16.7 µM
  TGI: 32.5 µM
[45]
  GI50: 14.6 µM
  TGI: 28 µM
[46]
  GI50: 11.5 µM
  TGI: 24.9 µM
[47]
  GI50: 3.46 µM
  TGI: 22.7 µM
[48]
  GI50: 2.69 µM
  TGI: 27.6 µM
[49]
  GI50: 27.7 µM
  TGI: > 100 µM
[50]
  GI50: 17.6 µM
  TGI: 47.1 µM
[51]
  GI50: 10.8 µM
  TGI: 23.6 µM
[52]
  GI50: 20.3 µM
  TGI: 38.2 µM
[53]
  GI50: 9.89 µM
  TGI: 40.9 µM
[54]
  GI50: 0.573 µM
  TGI: 21.3 µM
[55]
  GI50: 20.2 µM
  TGI: 48 µM
[56]
  GI50: 17.5 µM
  TGI: 31.5 µM
[57]
  GI50: 14.2 µM
  TGI: 28.1 µM
[58]
  GI50: 6.94 µM
  TGI: 27.9 µM
